Like-named read-outs stand apart in the source and are kept apart here.
Legend:
[1] = system: FADD−/− Jurkat cells; test: TNF-induced programmed cell necrosis inhibition, Cell Titer-Glo viability; format: cell-based; conditions: Homo sapiens, Jurkat
From the text: (§1) The adopted biological assay protocol was: the programmed necroptosis effect of compounds on TNF-induced in FADD (Fas-Associated Death Domain) deficient Jurkat cells and L929 cells.
(§2) In order to verify the inhibitory effect of the compounds of the present invention on programmed cell necrosis at the cellular level, cell types closely related to the RIP1 pathway, namely FADD deficient Jurkat cells (human peripheral blood leukemia T cell line) and L929 cells, were selected. Two different stimulation methods were used: tumor necrosis factor (TNFα) used alone, or TNFα used in combination with mitochondria-derived cysteine aspartate activator (SMAC). Cells viability was calculated by detecting chemiluminescence values, and the biological activity of the compound for inhibiting programmed cell necrosis can be obtained.
(§3) Methods: FADD deficient Jurkat cells: FADD deficient Jurkat cells (human peripheral blood leukemia T cell line) were cultured in vitro. After growing to the logarithmic growth phase, the cells were collected, centrifuged at 1000 rpm for 5 min, the supernatant was discarded, and the cell concentration was adjusted to 2.5×10^5/mL. Cells were seeded into 384-well plates, 40 μl per well. 5 μL of Smac (50 nM) diluted in cell culture medium and 5 μL of each compound were added to the corresponding wells. After pretreatment at 37° C. for 1 h, 5 μL of TNFα (50 ng/mL) diluted in cell culture medium was added to each well of the stimulation group, and 5 μL of the culture medium was added to the control group. The plate was cultured in a cell incubator (37° C., 5% CO2) for 14 h, and 15 μl of Cell Titer-Glo solution was added to each well, then incubated for 30 min at room temperature, and intracellular ATP level was measured by detecting luminescence. The unstimulated DMSO control wells were taken as 100% cell viability. L929 cells: The L929 cells (mouse fibroblasts) were cultured in vitro, digested and diluted to 6.25×10^4/ml, and the cells were seeded into 384-well plates, 40 μl per well. The plate was placed in a cell incubator (37° C., 5% CO2) for 12 hours. 5 μL of Smac (500 nM) diluted in cell culture medium and 5 μL of each compound were added to the corresponding wells. After pretreatment at 37° C. for 1 h, 5 μL of TNFα (500 ng/mL) diluted in cell culture medium was added to each well of the stimulation group, and 5 μL of the culture medium was added to the control group. After the plate was cultured for 14 h in a cell incubator (37° C., 5% CO2), 15 μl of Cell Titer-Glo solution was added to each well. The plate was incubated at room temperature for 30 min, and intracellular ATP level was measured by detecting luminescence. The unstimulated DMSO control wells were taken as 100% cell viability. EC50 values of the compounds were calculated using Prism Graphpad statistical software.
FADD deficient Jurkat cells: FADD deficient Jurkat cells (human peripheral blood leukemia T cell line) were cultured in vitro. After growing to the logarithmic growth phase, the cells were collected, centrifuged at 1000 rpm for 5 min, the supernatant was discarded, and the cell concentration was adjusted to 2.5×10^5/mL. Cells were seeded into 384-well plates, 40 μl per well. 5 μL of Smac (50 nM) diluted in cell culture medium and 5 μL of each compound were added to the corresponding wells. After pretreatment at 37° C. for 1 h, 5 μL of TNFα (50 ng/mL) diluted in cell culture medium was added to each well of the stimulation group, and 5 μL of the culture medium was added to the control group. After the plate was cultured in a cell incubator (37° C., 5% CO2) for 14 h, 15 μl of Cell Titer-Glo solution was added to each well. The mixture was incubated for 30 min at room temperature, and intracellular ATP level was measured by detecting luminescence. The unstimulated DMSO control wells were taken as 100% cell viability.

[2] = system: L929 cells; test: as above; format: cell-based, mouse; conditions: Mus musculus, read-out: EC50 inhibitory activity on programmed cell necrosis
From the text: as §1, §2, §3
L929 cells: The L929 cells (mouse fibroblasts) were cultured in vitro, digested and diluted to 6.25×10^4/ml, and the cells were seeded into 384-well plates, 40 μl per well. The plate was placed in a cell incubator (37° C., 5% CO2) for 12 hours. 5 μL of Smac (500 nM) diluted in cell culture medium and 5 μL of each compound were added to the corresponding wells. After pretreatment at 37° C. for 1 h, 5 μL of TNFα (500 ng/mL) diluted in cell culture medium was added to each well of the stimulation group, and 5 μL of the culture medium was added to the control group. After the plate was cultured for 14 h in a cell incubator (37° C., 5% CO2), and 15 μl of Cell Titer-Glo solution was added to each well, then incubated at room temperature for 30 min, and intracellular ATP level was measured by detecting luminescence. The unstimulated DMSO control wells were taken as 100% cell viability.

[3] = 14 h, TNFa + SM164, read-out: EC50 inhibitory activity on programmed cell necrosis
[4] = TNFa, read-out: EC50 inhibitory activity on programmed cell necrosis
[5] = L929, 14 h, L929 cells (mouse), TNFa + SM164

Compound	EC50 [1, 3] [nM]	EC50 [1, 4] [nM]	EC50 [2, 5] [nM]	EC50 ([2]; L929, L929 cells (mouse), TNFa) [nM]
CC(C)(Oc1ccc(Cl)cc1F)C(=O)N1CCCC1c1ccc(C(N)=O)cc1 (centres unmarked) [QY-5-85]	> 10000	5340	> 10000	> 10000
Cc1ccc(C2CC=NN2C(=O)C(C)(C)Oc2ccc(Cl)cc2F)cc1 (centres unmarked) [QY-6-47]	90	5	49	18
CC(C)(Oc1ccc(Cl)cc1F)C(=O)N1CCC[C@H]1c1cc(F)cc(F)c1 [QY-6-60]	707	17	402	130
CC(C)(Oc1ccc(Cl)cc1F)C(=O)N1CCC[C@H]1c1ccc(F)c(F)c1 [QY-6-61]	379	12	218	75
CC(C)(Oc1ccc(Cl)cc1F)C(=O)N1CCC[C@H]1c1ccc(F)cc1 [QY-6-62]	117	3	174	44
CNC(=O)c1ccc(OC(C)(C)C(=O)N2CCCC2c2ccc(C)cc2)c(F)c1 (centres unmarked) [QY-6-63]	> 10000	4290	7800	3150
CC(C)(Oc1ccc(Cl)cc1)C(=O)N1CCC[C@H]1c1ccccc1 [QY-6-83]	613	56	323	40
CC(C)(Oc1ccc(Cl)cc1F)C(=O)N1CCC[C@H]1c1ccccc1 [QY-6-84]	439	27	216	25
[2H]c1c([2H])c([C@]2([2H])CCCN2C(=O)C(C)(C)Oc2ccc(Cl)cc2F)c([2H])c([2H])c1C([2H])([2H])[2H] [QY-7-7]	200	5	24	1
COc1cc(OC(C)(C)C(=O)N2N=CCC2c2ccc(C)cc2)ccc1Cl (centres unmarked) [QY-7-101]	1100	630	10	11
CC(C)(Oc1ccc(Cl)cc1F)C(=O)N1N=CCC1c1ccc(Cl)cc1 (centres unmarked) [QY-8-101]	692	15	15	5.8
COc1cc(Cl)ccc1OC(C)(C)C(=O)N1CCCC1c1ccc(C)cc1 (centres unmarked) [QY-9-8]	1.6	0.43	138	0.44
COc1cc(Cl)ccc1OC(C)(C)C(=O)N1N=CCC1c1ccc(Cl)cc1 (centres unmarked) [QY-9-32]	842	26.6		35.7
COc1cc(Cl)ccc1OC(C)(C)C(=O)N1CCCC1c1ccc(Cl)cc1 (centres unmarked) [QY-9-43]	1150	0.16		21
COc1cc(Cl)ccc1OC(C)(C)C(=O)N1CCC[C@H]1c1ccc(Cl)cc1 [QY-10-1]	> 10000	> 10000	3.6	0.79
CC(=O)Nc1cc(Cl)ccc1OC(C)(C)C(=O)N1CCCC1c1ccc(Cl)cc1 (centres unmarked) [QY-10-92]	> 10000	> 10000	> 10000	> 10000
COc1cc(Cl)ccc1OC(C)(C)C(=O)N1N=CCC1c1ccc(C)cc1 (centres unmarked) [QY-10-96]	633	13.4	6.31	0.151
COc1cc(Cl)ccc1NC(C)(C)C(=O)N1CCCC1c1ccc(Cl)cc1 (centres unmarked) [QY-10-104]	794	106	66.2	13.6

Compound	EC50 [1, 3] [nM]	EC50 [1, 4] [nM]	EC50 [2, 5] [nM]	EC50 ([2]; L929, L929 cells (mouse), TNFa) [nM]
[2H]c1c([2H])c([C@]2([2H])CCCN2C(=O)C(C)(C)Oc2ccc(Cl)cc2OC)c([2H])c([2H])c1C([2H])([2H])[2H] [QY-11-1]		4.05	2.66	0.0803
CC(C)(C(=O)N1CCCC1c1ccc(Cl)cc1)C1N=Nc2ccc(Cl)cc21 (centres unmarked) [QY-11-9A]	> 10000	> 10000	> 10000	2530
CC(C)(C(=O)N1CCCC1c1ccc(Cl)cc1)n1ncc2cc(Cl)ccc21 (centres unmarked) [QY-11-9B]	3340	2830	3440	0.00171
CC(C)(C(=O)N1CCCC1c1ccc(Cl)cc1)n1nnc2ccc(Cl)cc21 (centres unmarked) [QY-11-11A]	> 10000	> 10000	0.0772	0.0188
CC(C)(C(=O)N1CCCC1c1ccc(Cl)cc1)n1nnc2cc(Cl)ccc21 (centres unmarked) [QY-11-11B]	> 10000	> 10000	0.12	0.0192
CC(C)(C(=O)N1CCCC1c1ccc(Cl)cc1)n1ccc2cc(Cl)ccc21 (centres unmarked) [QY-11-15B]	> 10000	> 10000	> 10000	> 10000
CC(C)(C(=O)N1CCCC1c1ccc(Cl)cc1)n1cnc2ccc(Cl)cc21 (centres unmarked) [QY-11-16A]	> 10000	> 10000	> 10000	> 10000
CC(C)(C(=O)N1CCCC1c1ccc(Cl)cc1)n1cnc2cc(Cl)ccc21 (centres unmarked) [QY-11-16B]	> 10000	> 10000	> 10000	> 10000
CC(C)(Oc1ccc(C#N)cc1)C(=O)N1CCCC1c1ccc(Cl)cc1 (centres unmarked) [QY-11-36]	885	137	99.5	
CC(C)(Oc1ccc2ncsc2c1)C(=O)N1CCCC1c1ccc(Cl)cc1 (centres unmarked) [QY-11-44]	1320	212	677	0.0105
CC(C)(Oc1ccc(C#N)cc1F)C(=O)N1CCCC1c1ccc(Cl)cc1 (centres unmarked) [QY-11-45]	915	139	108	0.7
COc1cc(C#N)ccc1OC(C)(C)C(=O)N1CCCC1c1ccc(Cl)cc1 (centres unmarked) [QY-12-11]	178	6.72	16.6	6.06
[2H]c1c([2H])c([C@]2([2H])CCCN2C(=O)C(C)(C)Oc2ccc(C#N)cc2OC)c([2H])c([2H])c1C([2H])([2H])[2H] [QY-12-14]	45.3	3.65	7.63	3.16
Cn1cnc2ccc(OC(C)(C)C(=O)N3CCCC3c3ccc(Cl)cc3)cc21 (centres unmarked) [QY-12-32]	2420	535	1160	243
Cc1ccc(C2CCCN2C(=O)C(C)(C)Oc2ccc(Cl)cn2)cc1 (centres unmarked) [QY-13-42]	4900	0.0395	322	102
Cc1ccc(C2CCCN2C(=O)C(C)(C)Oc2ccc(C#N)cn2)cc1 (centres unmarked) [QY-13-68]	2420	27	4.52	2.06
Cc1ccc(C2CCCN2C(=O)C(C)(C)Oc2ncc(Cl)cn2)cc1 (centres unmarked) [QY-13-70]	> 10000	477	1930	221
Cc1ccc(C2CCCN2C(=O)C(C)(C)Nc2ncc(Cl)cn2)cc1 (centres unmarked) [QY-13-86]	> 10000	> 10000	> 10000	> 10000
